{"source": "patent US7585941B2", "about": "(priority 2004, dated 2009)", "key": {"[1]": {"target": "hMOR-1B4 (Homo sapiens, UniProt P35372, I109V)", "experiment": "biochemical", "type": "binding"}, "[2]": {"test_system": "hMOR-1 variants", "details": "for range of the maximal inhibitions among the variants: relative efficacy, Table 5"}, "[3]": {"target": "hMOR-1B2 (Homo sapiens, UniProt P35372)", "experiment": "biochemical", "type": "binding"}, "[4]": {"target": "hMOR-1B5 (Homo sapiens, UniProt P35372)", "details": "cho cells"}, "[5]": {"target": "hMOR-1B4 (Homo sapiens, UniProt P35372)", "experiment": "biochemical", "type": "binding"}, "[6]": {"target": "T1, rMOR-1A (Rattus norvegicus, UniProt P33535)", "experiment": "biochemical", "type": "binding"}, "[7]": {"target": "rMOR-1 (no Exon 4) (Rattus norvegicus, UniProt P33535)", "experiment": "biochemical", "type": "biochemical", "procedure": "(§1) Basal [^35S]GTPγS binding was assessed in membranes from cells stably transfected with the individual variants. The ability multiple concentrations of the indicated opioid to stimulate [^35S]GTPγS binding was determined. […] Results are the means ±S.E.M. of at least three independent determinations."}, "[8]": {"target": "hMOR-1 (Homo sapiens, UniProt P35372)", "experiment": "biochemical", "type": "binding"}, "[9]": {"target": "T1, rMOR-1A", "experiment": "biochemical", "type": "biochemical", "procedure": "as §1"}, "[10]": {"target": "T2, rMOR-1 (Rattus norvegicus, UniProt P33535)", "type": "binding"}, "[11]": {"target": "T3, rMOR-1 (no E4) (Rattus norvegicus, UniProt P33535)", "T3 construct": "rMOR-1 no E 4; expressed in transfected cells", "experiment": "biochemical", "type": "binding"}, "[12]": {"target": "T2, rMOR-1", "experiment": "biochemical", "type": "biochemical", "procedure": "as §1"}, "[13]": {"target": "rMOR-1D (Rattus norvegicus, UniProt P33535, I238V)", "experiment": "biochemical", "type": "biochemical", "procedure": "as §1"}, "[14]": {"target": "T4, rMOR-1D (Rattus norvegicus, UniProt P33535)", "experiment": "biochemical", "type": "biochemical", "procedure": "as §1"}, "[15]": {"target": "hMOR-1B1 (Homo sapiens, UniProt P35372)", "type": "binding"}, "[16]": {"target": "T4, rMOR-1D", "experiment": "biochemical", "type": "binding"}, "[17]": {"target": "T5, rMOR-1C1 (Rattus norvegicus, UniProt P33535)", "experiment": "biochemical", "type": "binding"}, "[18]": {"target": "T5, rMOR-1C1", "experiment": "biochemical", "type": "biochemical", "procedure": "as §1"}, "[19]": {"target": "hMOR-1Y (Homo sapiens, UniProt P35372)", "experiment": "biochemical", "type": "binding"}, "[20]": {"target": "hMOR-1B3 (Homo sapiens, UniProt P35372)", "experiment": "biochemical", "type": "binding"}, "[21]": {"target": "hMOR-1A (Homo sapiens, UniProt P35372)", "experiment": "biochemical", "type": "binding"}, "[22]": {"test_system": "human MOR-1 variants"}, "[23]": {"details": "as an analgesic and as a respiratory depressant; background statement; cited from earlier work"}}, "note": "Read-outs that look alike come from different tables or passages of the source."}
{"compound": "CC[C@H](C)[C@H](NC(=O)[C@H](C)NC(=O)[C@H](CC(N)=O)NC(=O)[C@H](CCCCN)NC(=O)[C@H](Cc1ccccc1)NC(=O)[C@H](CC(C)C)NC(=O)[C@@H](NC(=O)[C@@H](NC(=O)[C@H](CC(C)C)NC(=O)[C@@H]1CCCN1C(=O)[C@@H](NC(=O)[C@H](CCC(N)=O)NC(=O)[C@H](CO)NC(=O)[C@H](CCCCN)NC(=O)[C@H](CCC(=O)O)NC(=O)[C@H](CO)NC(=O)[C@@H](NC(=O)[C@H](CCSC)NC(=O)[C@H](Cc1ccccc1)NC(=O)CNC(=O)CNC(=O)[C@@H](N)Cc1ccc(O)cc1)[C@@H](C)O)[C@@H](C)O)C(C)C)[C@@H](C)O)C(=O)N[C@H](C(=O)N[C@@H](CCCCN)C(=O)N[C@@H](CC(N)=O)C(=O)N[C@@H](C)C(=O)N[C@@H](Cc1ccc(O)cc1)C(=O)N[C@@H](CCCCN)C(=O)N[C@@H](CCCCN)C(=O)NCC(=O)N[C@@H](CCC(=O)O)C(=O)O)[C@@H](C)CC", "note": "[β-Endorphin]", "values": [{"measurement": "affinity for hMOR-1B4 compared to other variants (in words)", "setting": "[1]", "value": "lower affinities"}, {"measurement": "variation of IC50 values among the variants", "setting": "[2]; cAMP inhibition, among human variants", "value": "3- to 16 fold"}, {"measurement": "range of the maximal inhibitions among the variants", "setting": "[2]", "value": "72-100%"}, {"measurement": "affinity for hMOR-1B2 compared to other variants (in words)", "setting": "[3]", "value": "lower affinities"}, {"measurement": "IC50 value variation between hMOR-1 and hMOR-1B5", "setting": "[4]", "value": "over 16 fold"}]}
{"compound": "CC(C)C[C@H](NC(=O)[C@H](Cc1ccccc1)NC(=O)CNC(=O)[C@@H](CO)NC(=O)[C@@H](N)Cc1ccc(O)cc1)C(=O)N[C@H](C(=O)O)[C@@H](C)O", "note": "[DSLET, [D-Ser^2, Leu^5]enkephalin-Thr^6]", "values": [{"measurement": "Ki", "setting": "[5]", "value": "22.3 ± 2", "unit": "nM"}, {"measurement": "Ki", "setting": "[6]", "value": "44.5 ± 5.1", "unit": "nM"}, {"measurement": "EC50", "setting": "[7]", "value": "690 ± 179", "unit": "nM"}, {"measurement": "Max Stim (%)", "setting": "[7]", "value": "226 ± 15", "unit": "%"}, {"measurement": "Ki", "setting": "[8]", "value": "19.1 ± 5.8", "unit": "nM"}, {"measurement": "EC50", "setting": "[9]", "value": "127 ± 45", "unit": "nM"}, {"measurement": "Max Stim (%)", "setting": "[9]", "value": "206 ± 23", "unit": "%"}, {"measurement": "Ki", "setting": "[3]", "value": "34.4 ± 6.4", "unit": "nM"}, {"measurement": "Ki", "setting": "[10]", "value": "30.9 ± 1.9", "unit": "nM"}, {"measurement": "Ki", "setting": "[11]", "value": "24.2 ± 1.9", "unit": "nM"}, {"measurement": "EC50", "setting": "[12]", "value": "76 ± 17", "unit": "nM"}, {"measurement": "Max Stim (%)", "setting": "[12]", "value": "251 ± 5", "unit": "%"}, {"measurement": "Max Stim (%)", "setting": "[13]", "value": "187 ± 19", "unit": "%"}, {"measurement": "EC50", "setting": "[14]", "value": "540 ± 129", "unit": "nM"}, {"measurement": "Ki", "setting": "[15]", "value": "13.9 ± 4.9", "unit": "nM"}, {"measurement": "Ki", "setting": "[16]", "value": "27.3 ± 7.3", "unit": "nM"}, {"measurement": "Ki", "setting": "[17]", "value": "45 ± 8.7", "unit": "nM"}, {"measurement": "EC50", "setting": "[18]", "value": "253 ± 75", "unit": "nM"}, {"measurement": "Max Stim (%)", "setting": "[18]", "value": "312 ± 19", "unit": "%"}, {"measurement": "Ki", "setting": "[19]", "value": "15.4 ± 3.5", "unit": "nM"}, {"measurement": "Ki", "setting": "[20]", "value": "16.4 ± 2.8", "unit": "nM"}, {"measurement": "Ki", "setting": "[21]", "value": "19.7 ± 7.7", "unit": "nM"}]}
{"compound": "C[C@@H](NC(=O)[C@@H](N)Cc1ccc(O)cc1)C(=O)NCC(=O)N(C)[C@@H](Cc1ccccc1)C(=O)NCCO", "note": "[DAMGO, [D-Ala^2,MePhe^4,Gly(ol)^5]enkephalin]", "values": [{"measurement": "Max Stim (%)", "setting": "[7]; percent increase over basal binding, rMOR-1 (no Exon 4)", "value": "196 ± 37", "unit": "%"}, {"measurement": "range of the maximal inhibitions among the variants", "setting": "[2]", "value": "63-100%"}, {"measurement": "Max Stim (%)", "setting": "[9]; percent increase over basal binding, rMOR-1A", "value": "176 ± 24", "unit": "%"}, {"measurement": "Max Stim (%)", "setting": "[12]; percent increase over basal binding, rMOR-1", "value": "233 ± 44", "unit": "%"}, {"measurement": "Max Stim (%)", "setting": "[13]; percent increase over basal binding, rMOR-1D", "value": "113 ± 22", "unit": "%"}, {"measurement": "Max Stim (%)", "setting": "[18]; percent increase over basal binding, rMOR-1C1", "value": "233 ± 45", "unit": "%"}]}
{"compound": "Endomorphin 2", "values": [{"measurement": "fold less potent in competing binding to hMOR-1", "setting": "[8]", "value": "5- to 7 fold"}]}
{"compound": "CC1(C)SSC(C)(C)[C@@H](NC(=O)[C@@H](N)Cc2ccc(O)cc2)C(=O)NCC(=O)N[C@@H](Cc2ccccc2)C(=O)N[C@H]1C(=O)O", "note": "[DPDPE, [D-Pen^2, D-Pen-^5]enkephalin]", "values": [{"measurement": "competition of [3H]DAMGO binding (in words)", "setting": "[22]", "value": "inactive"}]}
{"compound": "COc1ccc2c3c1O[C@H]1[C@@H](O)C=C[C@H]4[C@@H](C2)N(C)CC[C@@]341", "note": "[codeine]", "values": [{"measurement": "effectiveness orally relative to parenterally", "setting": "[23]", "value": "approximately 60%"}]}
{"compound": "Endomorphin 1", "values": [{"measurement": "EC50/Ki", "setting": "[7]", "value": 25.9}, {"measurement": "Max Stim (%)", "setting": "[7]", "value": "189 ± 16", "unit": "%"}, {"measurement": "EC50/Ki", "setting": "[9]", "value": 2.3}, {"measurement": "Max Stim (%)", "setting": "[9]", "value": "205 ± 34", "unit": "%"}, {"measurement": "affinity for hMOR-1B2 compared to other variants (in words)", "setting": "[3]", "value": "relative lower affinities"}, {"measurement": "EC50/Ki", "setting": "[12]", "value": 3.4}, {"measurement": "Max Stim (%)", "setting": "[12]", "value": "320 ± 23", "unit": "%"}, {"measurement": "EC50/Ki", "setting": "[13]", "value": 25.6}, {"measurement": "Max Stim (%)", "setting": "[13]", "value": "145 ± 29", "unit": "%"}, {"measurement": "EC50/Ki", "setting": "[18]", "value": 13.8}, {"measurement": "Max Stim (%)", "setting": "[18]", "value": "377 ± 40", "unit": "%"}]}
